Here are results for five compounds from patent US20070014739A1, “Compositions and methods for controlling biofilms and bacterial infections” (priority 2005, published 2007).

Data set [1] relates to P. aeruginosa. Kind of data set: Biofilm inhibition, comparison of scaffold modifications. It counts as cell-based. The following applies: effect of modifying corosolic acid at C-19, or at C-3 and C-20.
A short description of data set [2]: Bladder concentrations in rats (pharmacokinetic study). The following applies: rat, in vivo; rats, 50 mg/kg oral single bolus in 50% Labrasol, at 24 hours; read-out: Concentrations in the bladder. The procedure: Pharmacokinetic studies of asiatic acid and madecassic acid in rats were performed separately. Asiatic acid and madecassic acid were evaluated at 50 mg/kg (oral). Two animals were assigned to the each group. Prior to dosing, a baseline blood sample was taken from each animal. At time zero for asiatic acid and madecassic acid, a single bolus dose in 50% Labrasol (Gattefosse) was given to each animal. Bladders were analyzed at 24 hours. Concentrations of both asiatic acid and madecassic acid in the bladder were approximately 30 μg/g at 24 hours.

Data set [3] relates to P. aeruginosa strain PAO1. Briefly: Rotating disk reactor (RDR) biofilm test with and without tobramycin, culturable bacteria. It counts as cell-based, Pseudomonas aeruginosa. The following applies: test compound 100 μg/ml 24 h, average of three days. Here is the method:
Biofilm formation of P. aeruginosa was evaluated using a standardized biofilm method with a rotating disk reactor (RDR). This method provides a model resembling the formation of biofilms in cystic fibrosis patients. The rotating disk reactor consists of a one-liter glass beaker fitted with a drain spout. The bottom of the vessel contains a magnetically driven rotor with six 1.27 cm diameter coupons constructed from polystyrene. The rotor consists of a star-head magnetic stir bar upon which a disk was affixed to hold the coupons. The vessel with the stir bar was placed on a stir plate and rotated to provide fluid shear. A nutrient solution (AB Trace Medium with 0.3 mM glucose, see Table 3 below for composition) was added through a stopper in the top of the reactor at a flow rate of 5 ml/min. The reactor volume was approximately 180 ml and varied slightly between reactors depending on the placement of the drain spout and the rotational speed of the rotor. At a volume of 180 ml, the residence time of the reactors was 36 minutes. The reactors were operated at room temperature (c.a. 26° C.).
For each test, two RDRs were operated in parallel with one receiving test compound and the other serving as an untreated control. The RDRs were sterilized by autoclave, then filled with sterile medium and inoculated with P. aeruginosa strain PAO1. The reactors were then incubated at room temperature in batch mode (no medium flow) for a period of 24 hours, after which the flow was initiated for a further 24 hour incubation. Test compounds were dissolved in 10 ml ethanol to achieve a concentration of 1.8 mg/ml. After the 48 hours of biofilm development described above, the 10 ml of ethanol containing the test compounds were added to the reactor to achieve a final concentration of approximately 50, 100, or 200 μg/ml. Control reactors received 10 ml of ethanol. The reactors were then incubated for an additional 24 hours in batch (no flow) mode. After this incubation period, the six coupons were removed from each reactor and placed in 12-well polystyrene tissue culture plates with wells containing either 2 ml of a 100 μg/ml tobramycin solution or 2 ml of phosphate-buffered saline (PBS). These plates were incubated at room temperature for two hours. The coupons were then rinsed by three transfers to plates containing 2 ml of fresh PBS. For each two RDR reactors run in parallel, four sets of three coupons were obtained: one set with no test compound treatment and no tobramycin treatment, one set with no test compound treatment and tobramycin treatment, one set treated with a test compound treatment and no tobramycin treatment, and one set treated with a test compound treatment and tobramycin. After rinsing, one coupon of each set of three was stained with a LIVE/DEAD® BacLight™ Bacterial Viability Kit (Molecular Probes, Eugene Oreg.) and imaged using epifluorescent microscopy. The remaining two coupons were placed in 10 ml of PBS and sonicated for five minutes to remove and disperse biofilm cells. The resulting bacterial suspensions were then serially diluted in PBS and plated on tryptic soy agar plates for enumeration of culturable bacteria. The plates were incubated for 24 hours at 37° C. before colony forming units (CFU) were determined.
The results are averages from experiments performed on three separate days for each test compound. The values reported are as loglo CFU.

Data set [4] deals with E. coli laboratory strain JM109. Briefly: Inhibition of biofilm formation, crystal violet, 96 well plates. It counts as cell-based. The following applies: Escherichia coli, JM 109, compared to the controls, read-out: inhibited biofilm formation of the JM109 strain. The procedure: Biofilm inhibition experiments were conducted using an assay adapted from the reported protocol described in Pratt and Kolter, 1998, Molecular Microbiology, 30: 285-293; Li et al., 2001, J. Bacteriol., 183: 897-908. E. coli clinical strain UT189 was grown in LB in 96 well plates at room temperature for one or two days without shaking. E. coli laboratory strain JM109 was grown in LB plus 0.2% glucose in 96 well plates at room temperature for one day without shaking. To quantify the biofilm mass, the suspension culture was poured out and the biofilm was washed three times with water. The biofilm was stained with 0.1% crystal violet for 20 minutes. The plates were then washed three times with water. OD reading at 540 nm was measured to quantify the biofilm mass at the bottom of the wells. Then 95% ethanol was added to dissolve the dye at the bottom and on the wall and the OD reading at 540 nm was measured to quantify the total biofilm mass. To study the overall effect of the compounds (3.6 mg/mL in 100% ethanol as stock solution), it was added with the inoculation and a time course of biofilm mass was measured. Appropriate amounts of 100% ethanol were added to each sample to eliminate the effect of solvent. Each condition had 3-4 replicates on each plate and was performed over multiple days.

Data set [5] deals with P. aeruginosa. The following applies: U.S. Pat. No. 4,606,911; cited from earlier work.
A further data set has as its system S. salivaris. The following applies: U.S. Pat. No. 4,606,911; cited from earlier work.
In the next data set the test system is E. coli. The following applies: U.S. Pat. No. 4,606,911; cited from earlier work.
For the next data set, the system named is S. mutans. The following applies: U.S. Pat. No. 4,606,911; cited from earlier work.
The subject of another data set is S. aureus. The following applies: U.S. Pat. No. 4,606,911; cited from earlier work.
The test system of the next data set is E. coli UT189[pCOMGFP]. Kind of data set: Biofilm pods (IBCs) in bladders of infected mice, intravesical compound, confocal microscopy. The following applies: experiment 1: C3H/HeN mice, 40 μg/ml intravesical with 30 min pre-incubation, 10^8 CFU, five hours; vs controls. It counts as in vivo, Escherichia coli. The procedure:
The procedures in this example has been previously reported by Justice, S. et al. Differentiation and development pathways of uropathogenic Escherichia coli in urinary tract pathogenesis. PNAS, 2004, 101(5), p. 1333-1338. Briefly, E. coli UT189[pCOMGFP] was prepared after retrieval from frozen stocks by inoculating appropriately in LB medium statically for approximately 20 hours. Cells were harvested and suspended in 1 ml of PBS. Cells were diluted appropriately to achieve approximately a 10^8 CFU or 10^7 CFU input into C3H/HeN mice (2 mice per group).
Mice were deprived of water for approximately two hours. In experiment 1, all mice were anesthetized with 0.15 cc ketamine cocktail. In experiment 2, all mice were anesthetized with isofluorane. In experiment 1, urine was dispelled from the bladders and approximately 40 μg/ml of test compound or an appropriate amount of ethanol as control was introduced into the bladders via catheterization of the urethra using a tubing coated tuberculin syringe. 30 minutes was allowed to elapse. In experiment 2, bladders were not pre-incubated with test compounds. Bladders were then expelled and an inoculum of 10^8 CFU (Experiment 1) or 10^7 CFU (Experiment 2) of E. coli containing 40 μg/ml of test compound or equivalent amount of ethanol as controls were introduced into the bladders as indicated above.
In experiment 1 five hours elapsed and in experiment 2 six hours elapsed, and then mice were anesthetized and sacrificed appropriately. The bladders were removed, bisected, stretched, and fixed in 3% paraformaldehyde for 1 hour at room temperature. Bladders were then permeabilized in 0.01% Triton/PBS for 10 minutes and counter stained with TOPRO3 (Molecular Probes) for 10 minutes for visualization by confocal microscopy. Bladders were mounted on Prolong antifade (Molecular Probes).

Data set [6] has as its system E. coli clinical strain UT189 against bladder epithelial cells. Briefly: Binding to and invasion of bladder epithelial cells by E. coli. The data set is classed as cell-based. The following applies: 40 μg/ml, 60 minutes; separate experiments (n=4 to 7). The procedure:
The effect of test compounds on bacterial invasion of E. coli clinical strain UT189 was studied as described in Elsinghorst, et al. 1994, Methods Enzymol, 236:405-420; and Martinez et al., 2000, EMBO J., 19:2803-2812. Epithelial bladder cells were grown in plates. Asiatic acid, corosolic acid, or ursolic acid were added at concentrations of 10 μg/ml, 20 μg/ml, or 40 μg/ml to bacteria and epithelial cells for approximately 5, 15, 30, or 60 minutes with approximately 10^7 CFU of E. coli. Binding was assessed at time zero and invasion was assessed at approximately 5, 15, 30, or 60 minutes from completing the mixture of compound, bacteria, and epithelial cells. As a control ethanol was added to cells to a final concentration of 0.1%. The effect of bacterial viability and bacterial adherence during the infection period was evaluated according to the methods described in Martinez et al., 2000, EMBO J., 19:2803-2812.

As for `C[C@@H]1[C@H]2C3=CCC4[C@@]5(C)CC[C@H](OC(=O)/C=C\c6ccc(O)cc6)C(C)(C)C5CC[C@@]4(C)[C@]3(C)CC[C@@]2(C(=O)O)CC[C@]1(C)O` (stereo partly drawn) [3-[4-Hydroxycinnamoyl (cis-)], 20-hydroxy-ursolic acid], in the data set on P. aeruginosa [1], the “biofilm inhibition against P. aeruginosa relative to corosolic acid” value is “increases biofilm inhibition”.
Take `C[C@H]1[C@H](C)CC[C@]2(C(=O)O)CC[C@]3(C)C(=CC[C@@H]4[C@@]5(C)C[C@@H](O)[C@H](O)[C@@](C)(CO)[C@@H]5[C@H](O)C[C@]43C)[C@H]12` [Madecassic acid]: in data set [2], the concentration at 24 h is roughly 30000 ng/g. The “CFU, Test Compound” value in data set [3] (no tobramycin) is recorded as 7.5 loglo CFU. Moreover, the “CFU, Tobramycin and Test Compound” value in [3] (then tobramycin 100 μg/ml 2 h) came out at 5.5 loglo CFU. In [4] (5 ug/ml), the inhibition at 5 µg/mL is roughly 60%. In data set [4] (10 ug/ml), the inhibition at 10 µg/mL is roughly 75%.
`CC1(C)CC[C@]2(C(=O)O)CC[C@]3(C)C(=CC[C@@H]4[C@@]5(C)CC[C@H](O)C(C)(C)[C@@H]5CC[C@]43C)[C@@H]2C1` [Oleanolic acid]: the “growth inhibition of P. aeruginosa” value in the data set on P. aeruginosa [5] is on record as “failed to inhibit”. In addition, the “growth inhibition of S. salivaris” value in the data set with S. salivaris is “incomplete inhibition”. In addition, in the data set on E. coli, the “growth inhibition of E. coli” value is “failed to inhibit”. The “growth inhibition of S. mutans” value in the data set with S. mutans is listed as “incomplete inhibition”. Moreover, the “growth inhibition of S. aureus” value in the data set with S. aureus is reported as “failed to inhibit”.
As for `C[C@@H]1CC[C@]2(C(=O)O)CC[C@]3(C)C(=CC[C@@H]4[C@@]5(C)C[C@@H](O)[C@H](O)C(C)(C)[C@@H]5CC[C@]43C)[C@@H]2[C@]1(C)O` [Tormentic acid], in the data set with P. aeruginosa [1], the “biofilm inhibition against P. aeruginosa relative to corosolic acid” value is on record as “slightly reduces the biofilm inhibition”.
Take `C[C@@H]1CC[C@]2(C(=O)O)CC[C@]3(C)C(=CCC4[C@@]5(C)CC[C@H](O)C(C)(C)C5CC[C@]43C)C2[C@H]1C` (stereo partly shown) [Ursolic acid]: the “growth inhibition of P. aeruginosa” value in the data set with P. aeruginosa [5] was “failed to inhibit”. Further, in the data set with S. salivaris, the “growth inhibition of S. salivaris” value is recorded as “completely inhibited”. The “growth inhibition of E. coli” value with E. coli was “failed to inhibit”. Besides, the “reduction in biofilm pods or IBCs in the bladders of mice” value in the data set with E. coli UT189[pCOMGFP] is 70%. In addition, the “growth inhibition of S. mutans” value in the data set on S. mutans is “completely inhibited”. Moreover, the “growth inhibition of S. aureus” value with S. aureus is “failed to inhibit”. Moreover, the “reduced invasion of E. coli into bladder epithelial cells” value in data set [6] is 76%.
